Results: article PMC9506414, “Novel 2,6,9-Trisubstituted Purines as Potent CDK Inhibitors Alleviating Trastuzumab-Resistance of HER2-Positive Breast Cancers” (Pharmaceuticals, 2022)
Read-outs that look alike come from different tables or passages of the source.

Columns and labels:
CYP3A4 = CYP3A4 (Homo sapiens, UniProt P08684); test: CYP inhibition; assay type: in vitro ADME
Procedure: Table 6 In vitro liver metabolic stability and activity against CYPs of potent analogues. | column: CYP % Activity at 10 μM / 3A4

IRS1 [1] = test: Western blot of IRS1 in HCC1954 cells; assay type: cell-based, human; settings: 40 and 200 nM, 24 h
Description: (§1) For Western blot analysis, the following antibodies were used: anti-Pol II CTD (2629S, Cell Signaling Technology, Danvers, MA, USA), anti-Pol II p-CTD (Ser2) (13499S, Cell Signaling Technology), anti-cyclinK (A301-939A-M, Bethyl Laboratories), anti-IRS1 (3407S, Cell Signaling Technology), anti-WNT1 (SC-514531, Santa Cruz Biotechnology, Dallas, TX, USA), anti-β-actin (MAB1501R, Millipore, Burlington, MA, USA), and horseradish peroxidase (HRP)-conjugated secondary antibodies (anti-mouse GTX213112-01; anti-rabbit GTX213110-01) (Genetex, Irvine, CA, USA).
(§2) Cells were lysed with lysis buffer containing 50 mM Tris pH 7.4, 150 mM NaCl, 1 mM EDTA, 1% NP-40, and 0.25% sodium deoxycholate supplemented with protease-inhibitor and phosphatase-inhibitor cocktails. The lysate samples (25 μg/lane) were loaded onto 6–12% sodium dodecyl sulfate polyacrylamide gel and separated by electrophoresis (SDS-PAGE). The proteins were transferred to nitrocellulose membrane (Gelman Sciences, Ann Arbor, MI, USA) by electroblotting. The membranes were blocked with 5% non-fat dry milk (MB Cell, Seoul, Korea), incubated with primary antibodies for overnight at 4 °C. After the washing steps were performed with TBST solution, the membranes were incubated with HRP-conjugated secondary antibodies for 1 h at rt. […]

cyclinK [2] = test: Western blot of cyclinK in HCC1954 cells; assay type: cell-based, human; settings: 40 and 200 nM (dinaciclib 40 nM), 2 h
Procedure: (§3) The proteins were transferred to nitrocellulose membrane (Gelman Sciences, Ann Arbor, MI, USA) by electroblotting. The membranes were blocked with 5% non-fat dry milk (MB Cell, Seoul, Korea), incubated with primary antibodies for overnight at 4 °C. After the washing steps were performed with TBST solution, the membranes were incubated with HRP-conjugated secondary antibodies for 1 h at rt. After the secondary washing steps using TBST solution, protein bands on the membranes were visualized using enhanced chemiluminescence ECL detection reagent (Biorad Laboratories, Hercules, CA, USA).

cyclinK [3] = test: Western blot of cyclinK in SK-Br3 cells; assay type: cell-based, human; settings: 2 h
Procedure: as §3

WNT1 [4] = test: Western blot of WNT1 in HCC1954 cells; assay type: cell-based, human; settings: 40 and 200 nM, 24 h
Description: as §1, §2

IRS1 [5] = test: Western blot of IRS1 in SK-Br3 cells; assay type: cell-based, human; settings: 40 and 200 nM, 24 h
Description: as §1, §2

SK-Br3 cells = test: Antiproliferation assay (Cell-titer Glo, 72 h); assay type: cell-based; settings: Homo sapiens, SK-BR-3
Summary of the method: (§4)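 Cells in RPMI/10% FBS were seeded at 5000 (SK-Br3) or 1000 (HCC-1954) per well and allowed 24 h to settle. Compounds were pin-transferred as 3-fold, 10-point duplicate series from a 10 mM stock and incubated 72 h at 37 °C. Viability was read by CellTiter-Glo luminescence and IC50 obtained by curve fitting.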

HCC1954 cells = test: Antiproliferation assay (Cell-titer Glo, 72 h); assay type: cell-based; settings: Homo sapiens
Summary of the method: as §4

Pol II p-CTD (Ser2) [6] = test: Western blot of Pol II p-CTD (Ser2) in HCC1954 cells; assay type: cell-based, human; settings: 40 and 200 nM (dinaciclib 40 nM), 2 h
Description: as §1
(§5) Cells were lysed with lysis buffer containing 50 mM Tris pH 7.4, 150 mM NaCl, 1 mM EDTA, 1% NP-40, and 0.25% sodium deoxycholate supplemented with protease-inhibitor and phosphatase-inhibitor cocktails. The lysate samples (25 μg/lane) were loaded onto 6–12% sodium dodecyl sulfate polyacrylamide gel and separated by electrophoresis (SDS-PAGE). The proteins were transferred to nitrocellulose membrane (Gelman Sciences, Ann Arbor, MI, USA) by electroblotting. The membranes were blocked with 5% non-fat dry milk (MB Cell, Seoul, Korea), incubated with primary antibodies for overnight at 4 °C. After the washing steps were performed with TBST solution, the membranes were incubated with HRP-conjugated secondary antibodies for 1 h at rt. After the secondary washing steps using TBST solution, protein bands on the membranes were visualized using enhanced chemiluminescence ECL detection reagent (Biorad Laboratories, Hercules, CA, USA).

WNT1 [7] = test: Western blot of WNT1 in SK-Br3 cells; assay type: cell-based, human; settings: 40 and 200 nM, 24 h
Description: as §1, §2

CDK12/CyclinK = CDK12/CyclinK (Homo sapiens, UniProt Q9NYV4); test: In vitro CDK12/cyclinK kinase assay; assay type: biochemical; design: purchased Reaction Biology Corp. (CRO that ran the assay); settings: Table 5; means and standard deviations from three independent assays; read-out: CDK12/CyclinK (IC50/μM)
Procedure: In vitro CDK12/cyclinK assays for all compounds and in vitro kinome-wide inhibition profiling of 30d at 10 μM were performed by a CRO company (Reaction Biology Corp., San Diego, CA, USA).

Pol II p-CTD (Ser2) [8] = test: Western blot of Pol II p-CTD (Ser2) in SK-Br3 cells; assay type: cell-based, human; settings: 2 h
Description: as §1, §5

CYP2C9 = CYP2C9 (Homo sapiens, UniProt P11712); test: CYP inhibition; assay type: in vitro ADME
Procedure: Table 6 In vitro liver metabolic stability and activity against CYPs of potent analogues. | column: CYP % Activity at 10 μM / 2C9

CYP2C19 = CYP2C19 (Homo sapiens, UniProt P33261); test: CYP inhibition; assay type: in vitro ADME
Procedure: Table 6 In vitro liver metabolic stability and activity against CYPs of potent analogues. | column: CYP % Activity at 10 μM / 2C19

[9] = SK-Br3 cells, 40 and 200 nM (dinaciclib 40 nM)
[10] = 72 h, means and standard deviations from three independent assays, read-out: SK-Br3 (GI50/μM)
[11] = 72 h, means and standard deviations from three independent assays, read-out: HCC1954 (GI50/μM)

Sequence of CYP3A4 (P08684 whole entry): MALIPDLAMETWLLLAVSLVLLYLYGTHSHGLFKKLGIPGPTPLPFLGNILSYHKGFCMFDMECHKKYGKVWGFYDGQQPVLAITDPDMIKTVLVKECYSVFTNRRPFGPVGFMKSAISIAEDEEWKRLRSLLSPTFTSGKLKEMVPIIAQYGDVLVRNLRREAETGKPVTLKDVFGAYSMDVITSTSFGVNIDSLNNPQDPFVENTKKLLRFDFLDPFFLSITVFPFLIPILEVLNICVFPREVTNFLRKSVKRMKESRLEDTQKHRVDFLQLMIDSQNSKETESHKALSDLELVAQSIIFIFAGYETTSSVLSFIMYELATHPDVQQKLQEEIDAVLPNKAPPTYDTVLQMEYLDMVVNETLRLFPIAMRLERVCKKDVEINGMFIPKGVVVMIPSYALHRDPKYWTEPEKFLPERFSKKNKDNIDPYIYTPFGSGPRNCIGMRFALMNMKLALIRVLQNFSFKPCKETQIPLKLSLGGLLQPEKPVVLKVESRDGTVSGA
Sequence of CYP2C9 (P11712 whole entry): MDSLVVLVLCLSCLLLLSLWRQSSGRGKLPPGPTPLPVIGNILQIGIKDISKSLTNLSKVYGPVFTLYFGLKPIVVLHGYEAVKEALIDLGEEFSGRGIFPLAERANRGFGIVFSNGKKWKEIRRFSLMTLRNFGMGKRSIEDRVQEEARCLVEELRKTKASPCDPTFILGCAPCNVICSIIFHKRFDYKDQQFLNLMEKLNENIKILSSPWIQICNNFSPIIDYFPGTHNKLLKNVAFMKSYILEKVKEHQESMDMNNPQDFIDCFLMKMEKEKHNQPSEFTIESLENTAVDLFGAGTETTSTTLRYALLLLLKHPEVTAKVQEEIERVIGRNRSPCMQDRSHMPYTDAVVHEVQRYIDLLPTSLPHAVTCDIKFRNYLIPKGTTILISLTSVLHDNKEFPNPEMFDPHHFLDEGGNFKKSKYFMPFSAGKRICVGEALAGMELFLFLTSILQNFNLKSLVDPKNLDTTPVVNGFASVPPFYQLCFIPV
Sequence of CYP2C19 (P33261 whole entry): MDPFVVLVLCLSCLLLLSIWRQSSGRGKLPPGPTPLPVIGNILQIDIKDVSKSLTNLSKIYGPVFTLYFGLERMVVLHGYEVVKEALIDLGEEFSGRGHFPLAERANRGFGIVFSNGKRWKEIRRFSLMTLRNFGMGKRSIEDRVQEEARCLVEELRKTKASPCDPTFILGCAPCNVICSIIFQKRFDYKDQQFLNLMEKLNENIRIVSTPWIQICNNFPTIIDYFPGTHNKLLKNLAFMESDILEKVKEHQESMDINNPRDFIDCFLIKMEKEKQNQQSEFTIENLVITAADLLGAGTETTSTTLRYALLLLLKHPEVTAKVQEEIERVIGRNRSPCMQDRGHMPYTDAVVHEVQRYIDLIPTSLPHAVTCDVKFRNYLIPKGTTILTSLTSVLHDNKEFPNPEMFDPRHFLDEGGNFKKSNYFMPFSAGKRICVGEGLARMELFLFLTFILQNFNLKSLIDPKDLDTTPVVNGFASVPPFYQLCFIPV
Sequence of CDK12/CyclinK (Q9NYV4 whole entry): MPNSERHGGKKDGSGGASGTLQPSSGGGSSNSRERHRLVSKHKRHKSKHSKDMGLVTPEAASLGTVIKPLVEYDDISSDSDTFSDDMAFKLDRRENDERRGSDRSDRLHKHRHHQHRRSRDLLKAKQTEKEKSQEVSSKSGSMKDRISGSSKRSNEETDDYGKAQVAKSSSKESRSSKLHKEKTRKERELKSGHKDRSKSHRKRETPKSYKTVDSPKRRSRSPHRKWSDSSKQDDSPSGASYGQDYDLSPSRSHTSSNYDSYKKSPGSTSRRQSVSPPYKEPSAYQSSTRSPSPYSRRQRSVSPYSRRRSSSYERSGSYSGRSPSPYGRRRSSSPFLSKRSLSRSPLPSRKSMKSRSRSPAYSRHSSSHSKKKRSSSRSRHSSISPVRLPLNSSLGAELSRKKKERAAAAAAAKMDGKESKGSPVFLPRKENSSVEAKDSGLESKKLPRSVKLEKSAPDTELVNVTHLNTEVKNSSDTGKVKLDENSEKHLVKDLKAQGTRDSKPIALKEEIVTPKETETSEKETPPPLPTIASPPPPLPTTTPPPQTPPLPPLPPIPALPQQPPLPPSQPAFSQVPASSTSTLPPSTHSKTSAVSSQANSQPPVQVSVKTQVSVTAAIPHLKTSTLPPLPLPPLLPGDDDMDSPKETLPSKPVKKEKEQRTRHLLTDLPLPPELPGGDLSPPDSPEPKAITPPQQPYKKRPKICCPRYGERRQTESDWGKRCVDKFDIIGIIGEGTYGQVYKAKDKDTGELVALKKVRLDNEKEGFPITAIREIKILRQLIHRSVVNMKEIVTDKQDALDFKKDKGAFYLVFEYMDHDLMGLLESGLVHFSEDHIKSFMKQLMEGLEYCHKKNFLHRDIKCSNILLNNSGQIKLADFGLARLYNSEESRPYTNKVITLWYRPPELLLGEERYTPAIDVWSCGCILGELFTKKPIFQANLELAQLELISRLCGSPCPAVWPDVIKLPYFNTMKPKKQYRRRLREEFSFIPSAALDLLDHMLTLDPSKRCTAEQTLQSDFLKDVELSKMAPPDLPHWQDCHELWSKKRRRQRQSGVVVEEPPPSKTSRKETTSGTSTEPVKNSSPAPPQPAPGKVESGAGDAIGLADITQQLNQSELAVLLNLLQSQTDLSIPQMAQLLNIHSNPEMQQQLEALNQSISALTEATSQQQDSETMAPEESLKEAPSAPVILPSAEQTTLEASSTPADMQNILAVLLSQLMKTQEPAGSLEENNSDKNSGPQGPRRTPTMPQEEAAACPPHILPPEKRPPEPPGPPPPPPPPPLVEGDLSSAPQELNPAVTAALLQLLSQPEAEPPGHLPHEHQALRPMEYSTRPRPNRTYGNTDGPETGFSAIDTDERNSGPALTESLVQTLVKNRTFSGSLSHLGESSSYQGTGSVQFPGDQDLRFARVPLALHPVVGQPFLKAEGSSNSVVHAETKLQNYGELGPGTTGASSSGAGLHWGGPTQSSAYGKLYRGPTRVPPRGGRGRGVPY
Sequence of CDK12/CyclinK (O75909 whole entry partner): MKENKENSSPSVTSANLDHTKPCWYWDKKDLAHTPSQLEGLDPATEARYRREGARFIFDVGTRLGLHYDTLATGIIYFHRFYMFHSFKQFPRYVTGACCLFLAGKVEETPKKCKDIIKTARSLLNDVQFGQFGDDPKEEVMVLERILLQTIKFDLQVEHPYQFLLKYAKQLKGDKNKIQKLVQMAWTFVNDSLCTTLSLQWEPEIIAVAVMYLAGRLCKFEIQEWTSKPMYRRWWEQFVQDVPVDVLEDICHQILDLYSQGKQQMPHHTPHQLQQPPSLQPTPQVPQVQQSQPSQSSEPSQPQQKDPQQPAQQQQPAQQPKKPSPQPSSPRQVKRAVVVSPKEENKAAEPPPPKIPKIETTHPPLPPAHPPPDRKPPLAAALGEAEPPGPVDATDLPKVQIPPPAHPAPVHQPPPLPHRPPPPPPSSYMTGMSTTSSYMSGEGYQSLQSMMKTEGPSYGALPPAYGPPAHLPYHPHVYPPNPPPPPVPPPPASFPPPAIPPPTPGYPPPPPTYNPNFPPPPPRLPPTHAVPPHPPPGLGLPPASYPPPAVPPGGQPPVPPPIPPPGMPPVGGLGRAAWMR

Row | Compound | CYP % Activity at 10 μM 3A4 (CYP3A4) [%] | IRS1 expression level (Western blot) (IRS1 [1]) | cyclinK level (Western blot) (cyclinK [2]) | cyclinK level (Western blot) (cyclinK [3]; [9]) | WNT1 expression level (Western blot) (WNT1 [4]) | IRS1 expression level (Western blot) (IRS1 [5]) | GI50 (SK-Br3 cells; [10]) [µM] | GI50 (SK-Br3 cells; read-out: SK-Br3 GI50) [µM] | GI50 (HCC1954 cells; [11]) [µM] | GI50 (HCC1954 cells; read-out: HCC1954 GI50) [µM] | PolII p-CTD (Ser2) level (Western blot) (Pol II p-CTD (Ser2) [6]) | WNT1 expression level (Western blot) (WNT1 [7]) | IC50 (CDK12/CyclinK) [µM] | PolII p-CTD (Ser2) level (Western blot) (Pol II p-CTD (Ser2) [8]; [9]) | CYP % Activity at 10 μM 2C9 (CYP2C9) [%] | CYP % Activity at 10 μM 2C19 (CYP2C19) [%] | cyclinK level (Western blot) (cyclinK [3]; SK-Br3 cells, 0.2, 1 μM) | PolII p-CTD (Ser2) level (Western blot) (Pol II p-CTD (Ser2) [8]; SK-Br3 cells, 0.2, 1 μM)
1 | CCn1cnc2c(NCc3ccc(-c4ccccn4)nc3)nc(-c3ccc(N)nc3)nc21 [Compound 30d, N-([2,2′-Bipyridin]-5-ylmethyl)-2-(6-aminopyridin-3-yl)-9-ethyl-9H-purin-6-amine] | 43.0 | strong suppression of IRS1 and WNT1 | greatly downregulated in a dose-dependent manner | greatly downregulated in a dose-dependent manner | strong suppression of IRS1 and WNT1 | strong suppression of IRS1 and WNT1 | 0.046 ± 0.007 | 0.046 to 0.052 | 0.036 ± 0.005 | 0.034 to 0.036 | strong, dose-dependent suppression | strong suppression of IRS1 and WNT1 | 0.021 ± 0.007 | strong, dose-dependent suppression | 57.9 | 68.1 | – | –
2 | CCn1cnc2c(NCc3ccc(-c4ccccn4)nc3)nc(-c3cnc(N)nc3)nc21 [Compound 30e, N-([2,2′-Bipyridin]-5-ylmethyl)-2-(2-aminopyrimidin-5-yl)-9-ethyl-9H-purin-6-amine] | 92.8 | strong suppression of IRS1 and WNT1 | greatly downregulated in a dose-dependent manner | greatly downregulated in a dose-dependent manner | strong suppression of IRS1 and WNT1 | strong suppression of IRS1 and WNT1 | 0.052 ± 0.003 | 0.046 to 0.052 | 0.034 ± 0.002 | 0.034 to 0.036 | strong, dose-dependent suppression | strong suppression of IRS1 and WNT1 | 0.085 ± 0.011 | strong, dose-dependent suppression | 81.6 | 72.6 | – | –
3 | CCc1cnn2c(NCc3ccc[n+]([O-])c3)cc(N3CCCC[C@H]3CCO)nc12 [Dinaciclib] | – | – | only a marginal downregulation of cyclinK | only a marginal downregulation of cyclinK | – | – | 0.012 ± 0.001 | – | 0.012 ± 0.001 | – | more potent inhibition of PolII CTD phosphorylation | – | – | more potent inhibition of PolII CTD phosphorylation | – | – | marginal activity in downrgulating cyclinK | strongly suppressed PolII p-CTD
